From PubChem BioAssay AID330 (DTP/NCI, 2004)
“And” between values parts separate entries of the source, which are not always exact repeats. Equal values may be shown once. Toxic doses and inconclusive results are not listed. The calls were made as follows: active = survival T/C of 150% or more; inactive = T/C below 125% in these data.

Tested on: P388 leukemia ip, CD2F1 mice, survival T/C
Assay: NCI In Vivo Anticancer Drug Screen. Data for tumor model P388 Leukemia (intraperitoneal) in CD2F1 (CDF1) mice
Settings: endpoint: median survival time, higher = longer survival
Method in brief: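 Mice carrying the transplanted tumor received test compound or vehicle. Survival was recorded in each group, and the value is the treated-group measurement divided by that of the vehicle-treated control group.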

[1] = dose: 50.0 mg/kg/injection, schedule: Q01DX009 (ip), vehicle: saline with Tween-80
[2] = dose: 100.0 mg/kg/injection, schedule: Q01DX009 (ip), vehicle: saline with Tween-80
[3] = dose: 200.0 mg/kg/injection, schedule: Q01DX009 (ip), vehicle: saline with Tween-80
[4] = dose: 50.0 mg/kg/injection, schedule: Q01DX009 (ip), vehicle: Klucel (hydroxypropylcellulose) (HPC)
[5] = dose: 100.0 mg/kg/injection, schedule: Q01DX009 (ip), vehicle: Klucel (hydroxypropylcellulose) (HPC)

Measured: T/C

CC(C)(C)OC(=O)NNS(=O)(=O)CCC(NC(=O)OCc1ccccc1)C(=O)OCc1ccccc1 (centres undefined)
inactive: dose: 12.5 mg/kg/injection, schedule: Q01DX009 (ip), vehicle: other 100 % of control | dose: 25.0 mg/kg/injection, schedule: Q01DX009 (ip), vehicle: other 97 % of control | dose: 50.0 mg/kg/injection, schedule: Q01DX009 (ip), vehicle: other 92 % of control | dose: 100.0 mg/kg/injection, schedule: Q01DX009 (ip), vehicle: other 88 % of control | dose: 200.0 mg/kg/injection, schedule: Q01DX009 (ip), vehicle: other 90 % of control

CCCCCOCC(=O)OC
inactive: [1] 98 % of control | [2] 102 % of control | [3] 103 % of control

C(=Nc1ccncc1)c1c[nH]c2ccccc12
inactive: dose: 3.12 mg/kg/injection, schedule: Q01DX001 (ip), vehicle: Klucel (hydroxypropylcellulose) (HPC) 104 % of control | dose: 6.25 mg/kg/injection, schedule: Q01DX001 (ip), vehicle: Klucel (hydroxypropylcellulose) (HPC) 98 % of control | dose: 12.5 mg/kg/injection, schedule: Q01DX001 (ip), vehicle: Klucel (hydroxypropylcellulose) (HPC) 101 % of control and 104 % of control

COc1cccc(C(=O)C(CN(C)C)CN(C)C)c1
inactive: dose: 3.12 mg/kg/injection, schedule: Q01DX009 (ip), vehicle: saline 100 % of control and 105 % of control | dose: 3.13 mg/kg/injection, schedule: Q01DX009 (ip), vehicle: saline 106 % of control | dose: 6.25 mg/kg/injection, schedule: Q01DX009 (ip), vehicle: saline 103 % of control and 115 % of control and 97 % of control | dose: 12.5 mg/kg/injection, schedule: Q01DX009 (ip), vehicle: saline 108 % of control and 112 % of control and 123 % of control | dose: 25.0 mg/kg/injection, schedule: Q01DX009 (ip), vehicle: saline 103 % of control and 123 % of control

Cc1cnc(N)c(C(=O)O)n1
inactive: dose: 50.0 mg/kg/injection, schedule: Q01DX005 (ip), vehicle: Klucel (hydroxypropylcellulose) (HPC) 102 % of control | dose: 100.0 mg/kg/injection, schedule: Q01DX005 (ip), vehicle: Klucel (hydroxypropylcellulose) (HPC) 90 % of control

CN(CCO)c1cnn(CCO)c(=O)c1Cl
inactive: dose: 60.0 mg/kg/injection, schedule: Q01DX005 (ip), vehicle: saline 102 % of control | dose: 120.0 mg/kg/injection, schedule: Q01DX005 (ip), vehicle: saline 105 % of control | dose: 240.0 mg/kg/injection, schedule: Q01DX005 (ip), vehicle: saline 102 % of control

CC(C)NC(=O)OCc1c(COC(=O)NC(C)C)c(Sc2ccccc2)n2c1CCC2
active: dose: 25.0 mg/kg/injection, schedule: Q01DX005 (ip), vehicle: saline with Tween-80 154 % of control | dose: 50.0 mg/kg/injection, schedule: Q01DX005 (ip), vehicle: saline with Tween-80 163 % of control
inactive: dose: 100.0 mg/kg/injection, schedule: Q01DX005 (ip), vehicle: saline with Tween-80 110 % of control

COc1cc(NCCCCCNC(C)C)c2ncc(C)c(C)c2c1
inactive: dose: 12.5 mg/kg/injection, schedule: Q01DX005 (ip), vehicle: saline 102 % of control | dose: 25.0 mg/kg/injection, schedule: Q01DX005 (ip), vehicle: saline 100 % of control | dose: 50.0 mg/kg/injection, schedule: Q01DX005 (ip), vehicle: saline 100 % of control

C/C(=N\O)C1(O)CCCCC1
inactive: [4] 108 % of control | [5] 108 % of control | dose: 200.0 mg/kg/injection, schedule: Q01DX009 (ip), vehicle: Klucel (hydroxypropylcellulose) (HPC) 105 % of control | dose: 400.0 mg/kg/injection, schedule: Q01DX009 (ip), vehicle: Klucel (hydroxypropylcellulose) (HPC) 113 % of control

Cc1cc2nc(Cc3nc4cc(C)c(C)cc4[nH]3)[nH]c2cc1C
inactive: dose: 25.0 mg/kg/injection, schedule: Q01DX009 (ip), vehicle: saline with Tween-80 90 % of control | [1] 90 % of control | [2] 100 % of control and 95 % of control | [3] 90 % of control

Cc1ccc(I)c(C(O)(C(F)(F)F)C(F)(F)F)c1
inactive: [4] 97 % of control | [5] 91 % of control

Cc1ccc(S(=O)(=O)N2C(=O)CCC2=O)cc1
inactive: dose: 100.0 mg/kg/injection, schedule: Q04DX003 (ip), vehicle: Klucel (hydroxypropylcellulose) (HPC) 106 % of control | dose: 100.0 mg/kg/injection, schedule: Q04DX003 (ip), vehicle: saline with Tween-80 105 % of control | dose: 200.0 mg/kg/injection, schedule: Q04DX003 (ip), vehicle: Klucel (hydroxypropylcellulose) (HPC) 120 % of control | dose: 200.0 mg/kg/injection, schedule: Q04DX003 (ip), vehicle: saline with Tween-80 100 % of control | dose: 400.0 mg/kg/injection, schedule: Q04DX003 (ip), vehicle: saline with Tween-80 110 % of control

C=CCC(NC(=O)CCl)C(=O)O (centres undefined)
inactive: dose: 50.0 mg/kg/injection, schedule: Q01DX009 (ip), vehicle: saline 92 % of control | dose: 100.0 mg/kg/injection, schedule: Q01DX009 (ip), vehicle: saline 90 % of control
